Test results from article PMC12566593, “Effects of Different Centrifugation Parameters on Equilibrium Solubility Measurements” (Methods and Protocols, 2025).
Values after ≈ are worked out from the molar mass of the structure shown. Read-outs that look alike come from different tables or passages of the source.

Columns and labels:
[1] = cited from earlier work
[2] = Equilibrium solubility, saturation shake-flask, centrifugation as phase separation; conditions: for solubility thermodynamic / solubility thermodynamic at 24 h: Britton-Robinson buffer; for solubility thermodynamic: pH 7.4, Equilibrium solubility S sed, sedimented before centrifugation; for solubility thermodynamic at 24 h: continuously stirred, no sedimentation
[3] = Equilibrium solubility, saturation shake-flask, sedimentation as phase separation (reference, standard protocol); conditions: for solubility: Britton-Robinson buffer, 6 h stirring, 18 h sedimentation, 25 °C
[4] = cited from earlier work; for Filtration: Result Range: % of reference, all filters
[5] = pH 7.4
[6] = Ionization state calculated from pKa and buffer pH; type: physicochemical
[7] = cited from earlier work; remark: listed apart in the source

## CC(=O)[C@H]1CC[C@H]2[C@@H]3CCC4=CC(=O)CC[C@]4(C)[C@H]3CC[C@]12C [PROG, progesterone]
[1]
  logP: 3.48
[2]; pH 7.4, 5000 rpm, 5 min
  solubility thermodynamic: 10.9 ± 0.09 µg/mL (≈ 34.7 µM)
[2]; pH 7.4, 5000 rpm, 10 min
  solubility thermodynamic: 10.9 ± 0.09 µg/mL (≈ 34.7 µM)
[2]; pH 7.4, 5000 rpm, 20 min
  solubility thermodynamic: 11.5 ± 0.06 µg/mL (≈ 36.6 µM)
[2]; pH 7.4, 10,000 rpm, 5 min
  solubility thermodynamic: 11 ± 0.12 µg/mL (≈ 35 µM)
[2]; pH 7.4, 10,000 rpm, 10 min
  solubility thermodynamic: 11.6 ± 0.11 µg/mL (≈ 36.9 µM)
[2]; pH 7.4, 10,000 rpm, 20 min
  solubility thermodynamic: 12.4 ± 0.06 µg/mL (≈ 39.4 µM)
[2]; pH 7.4, Equilibrium solubility S stir, pH 7.4, 5000 rpm, 5 min
  solubility thermodynamic at 24 h: 11 ± 0.06 µg/mL (≈ 35 µM)
[2]; pH 7.4, Equilibrium solubility S stir, pH 7.4, 5000 rpm, 10 min
  solubility thermodynamic at 24 h: 11.3 ± 0.14 µg/mL (≈ 35.9 µM)
[2]; pH 7.4, Equilibrium solubility S stir, pH 7.4, 5000 rpm, 20 min
  solubility thermodynamic at 24 h: 12.8 ± 0.05 µg/mL (≈ 40.7 µM)
[2]; pH 7.4, Equilibrium solubility S stir, pH 7.4, 10,000 rpm, 5 min
  solubility thermodynamic at 24 h: 11 ± 0.18 µg/mL (≈ 35 µM)
[2]; pH 7.4, Equilibrium solubility S stir, pH 7.4, 10,000 rpm, 10 min
  solubility thermodynamic at 24 h: 11.7 ± 0.14 µg/mL (≈ 37.2 µM)
[2]; pH 7.4, Equilibrium solubility S stir, pH 7.4, 10,000 rpm, 20 min
  solubility thermodynamic at 24 h: 13.3 ± 0.2 µg/mL (≈ 42.3 µM)
[2]; vs reference, pH 7.4
  Increase in measured solubility caused by centrifugation: at least 20%
[3]; pH 7.4, Solubility (reference), pH 7.4
  solubility: 8.98 ± 0.09 µg/mL (≈ 28.6 µM)
[4]; pH 7.4
  Filtration: Result Range: 55–98%
  Filtration: Closest to Reference (100%): 98%
[5]
  Centrifugation: Closest to Reference (100%): 121%
  Centrifugation: Result Range: 121–148%

## O=C(O)Cc1ccccc1Nc1c(Cl)cccc1Cl [DICL-NA, Diclofenac sodium]
[2]; 25 °C, pH 10, aqueous buffer, thermodynamic from solid, Equilibrium solubility S stir, pH 10.0, 10,000 rpm, 20 min
  solubility thermodynamic at 24 h: 11200 µg/mL
[2]; pH 2, Equilibrium solubility S stir, pH 2.0, 5000 rpm, 5 min
  solubility thermodynamic at 24 h: 1.64 ± 0.04 µg/mL
[2]; pH 2, Equilibrium solubility S stir, pH 2.0, 5000 rpm, 10 min
  solubility thermodynamic at 24 h: 1.52 ± 0.22 µg/mL
[2]; pH 2, Equilibrium solubility S stir, pH 2.0, 5000 rpm, 20 min
  solubility thermodynamic at 24 h: 1.71 ± 0.07 µg/mL
[2]; pH 2, Equilibrium solubility S stir, pH 2.0, 10,000 rpm, 5 min
  solubility thermodynamic at 24 h: 1.82 ± 0.07 µg/mL
[2]; pH 2, Equilibrium solubility S stir, pH 2.0, 10,000 rpm, 10 min
  solubility thermodynamic at 24 h: 1.78 ± 0.07 µg/mL
[2]; pH 2, Equilibrium solubility S stir, pH 2.0, 10,000 rpm, 20 min
  solubility thermodynamic at 24 h: 2 ± 0.13 µg/mL
[2]; pH 4, Equilibrium solubility S stir, pH 4.0, 5000 rpm, 5 min
  solubility thermodynamic at 24 h: 2.7 ± 0.1 µg/mL
[2]; pH 4, Equilibrium solubility S stir, pH 4.0, 5000 rpm, 10 min
  solubility thermodynamic at 24 h: 2.69 ± 0.24 µg/mL
[2]; pH 4, Equilibrium solubility S stir, pH 4.0, 5000 rpm, 20 min
  solubility thermodynamic at 24 h: 2.58 ± 0.16 µg/mL
[2]; pH 4, Equilibrium solubility S stir, pH 4.0, 10,000 rpm, 5 min
  solubility thermodynamic at 24 h: 2.79 ± 0.2 µg/mL
[2]; pH 4, Equilibrium solubility S stir, pH 4.0, 10,000 rpm, 10 min
  solubility thermodynamic at 24 h: 2.8 ± 0.11 µg/mL
[2]; pH 4, Equilibrium solubility S stir, pH 4.0, 10,000 rpm, 20 min
  solubility thermodynamic at 24 h: 2.88 ± 0.18 µg/mL
[2]; pH 10, Equilibrium solubility S stir, pH 10.0, 5000 rpm, 10 min
  solubility thermodynamic at 24 h: 9810 ± 318 µg/mL
[2]; pH 10, Equilibrium solubility S stir, pH 10.0, 5000 rpm, 20 min
  solubility thermodynamic at 24 h: 10700 µg/mL
[2]; pH 10, Equilibrium solubility S stir, pH 10.0, 10,000 rpm, 5 min
  solubility thermodynamic at 24 h: 9660 ± 760 µg/mL
[2]; pH 2.0
  Centrifugation: Closest to Reference (100%): 100%
[2]; pH 4.0
  Centrifugation: Closest to Reference (100%): 99%
[2]; pH 10.0
  Centrifugation: Closest to Reference (100%): 98%
[3]; pH 2, Solubility (reference), pH 2.0
  solubility: 1.67 ± 0.05 µg/mL
[3]; pH 10, Solubility (reference), pH 10.0
  solubility: 9470 ± 327 µg/mL
[3]; pH 10.0 (fully ionized) vs unionized form
  Increase of solubility compared to the unionized form: 5670 fold
[6]; pH 2.0
  Fraction ionized: about 1%
[6]; pH 4.0
  Fraction ionized: around 50%
[4]; nylon filter, low pH values
  Measured concentration after filtration: dropped to zero
[4]; pH 2.0
  Filtration: Result Range: 0–164%
  Filtration: Closest to Reference (100%): 93%
[4]; pH 4.0
  Filtration: Result Range: 0–103%
  Filtration: Closest to Reference (100%): 103%
[4]; pH 10.0
  Filtration: Result Range: 64–99%
  Filtration: Closest to Reference (100%): 99%

## NS(=O)(=O)c1cc2c(cc1Cl)NCNS2(=O)=O [HCT, hydrochlorothiazide]
[7]; first pKa for HCT
  pKa: 8.75
[7]; second pKa of the diprotic acid
  pKa (second value): 9.96
[6]; pH 8.8
  Fraction in dianionic form: 4%
  Fraction monoanionic: 51%
  Fraction unionized: 45%
[4]; pH 6.0
  Filtration: Result Range: 83–103%
  Filtration: Closest to Reference (100%): 102%
[4]; pH 8.8
  Filtration: Result Range: 75–100%
  Filtration: Closest to Reference (100%): 100%
[4]; pH 11.0
  Filtration: Result Range: 65–119%
  Filtration: Closest to Reference (100%): 100%
